This passage reports TGI results from PubChem BioAssay (NCI).

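1) Cells in 96-well plates. 2) Compound, 48 h, 5 concentrations. 3) Linear interpolation between surrounding doses. 4) Unreached endpoint = highest concentration. TGI marks complete inhibition of growth.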 Where a SMILES comes first, the peptide text is derived from it. Bridges are numbered along the chain shown (N, C = ends).

What all share (test): NCI-60 cell line screen, 48 h
Assay [1] relates to CAKI-1 renal.
In assay [2] the test system is COLO 205 colon.
For assay [3], the system named is K-562 leukemia.
Assay [4] relates to NCI-H522 lung.
The test system of assay [5] is NCI/ADR-RES ovarian.
Assay [6] relates to OVCAR-5 ovarian.
The subject of assay [7] is SF-268 CNS.
Assay [8] has as its system SNB-75 CNS.
The subject of assay [9] is SW-620 colon.
Assay [10] relates to TK-10 renal.

Take `O=[N+]([O-])/C(Cl)=C(\NCCO)C(Cl)=C(Cl)Cl`: the TGI was above 100 µM in assay [1]; 79.3 µM in [2]; 39.7 µM in [3]; 53 µM in assay [4]; above 77.9 µM in [5]; above 100 µM in assay [6]. In addition, the TGI was above 100 µM in assay [7], above 100 µM in assay [8], 77.4 µM in [9] and above 100 µM in assay [10].

On to `COc1ccc(-c2c(/C=N/OCC(=O)O)c3sc4ccccc4n3c2/C=N/OCC(=O)O)cc1`, for which the TGI in [1], in [2], in assay [3], in assay [4], in [5] and in [6] was above 50 µM in each case. The TGI in assay [7], in assay [8], in [9] and in assay [10] was above 50 µM each time.

As to `CCOC(=O)C1=C(N2CCCC2)C(=O)C(C(=O)OCC)C1` (stereo not given), the TGI in [1], in assay [2], in [3], in [4], in [5] and in [6] was above 100 µM in each case. Further, the TGI in assay [7], in [8], in assay [9] and in [10] was above 100 µM each time.

As for `Cc1cccc(NC(=S)Nc2cccc(Cl)c2)n1`, the TGI in assay [1], in assay [2], in assay [3], in assay [4], in [5] and in assay [6] was above 100 µM throughout. The TGI in assay [7], in assay [8], in [9] and in assay [10] was above 100 µM throughout.

For the compound `CC1=NN(c2ccccc2)C(=O)/C1=C\c1c(C)[nH]n(-c2ccccc2)c1=O`, the TGI in assay [1], in assay [2], in assay [3], in assay [4], in assay [5] and in assay [6] was above 100 µM in each case. Also, the TGI in assay [7], in assay [8], in [9] and in assay [10] was above 100 µM each time.

Regarding `COc1ccc(NCn2nc(CCCCCCCCc3nn(CNc4ccc(OC)cc4)c(=S)o3)oc2=S)cc1`, the TGI in [1], in [2], in [3], in [4], in [5] and in assay [6] was above 100 µM in each case. The TGI in assay [7], in assay [8], in [9] and in [10] was above 100 µM throughout.

Turning to `N#Cc1nc(CN2C(=O)c3ccccc3C2=O)oc1N`, the TGI in [1], in assay [2], in assay [3], in assay [4], in [5] and in assay [6] was above 100 µM in each case. Besides, the TGI in [7], in assay [8], in assay [9] and in assay [10] was above 100 µM in each case.

Turning to `Oc1c(NCn2nc(CCCCCCCCc3nn(CNc4ccc5ccccc5c4O)c(=S)o3)oc2=S)ccc2ccccc12`, the TGI in [1], in assay [2], in [3], in [4], in [5] and in assay [6] was above 100 µM in each case. Also, the TGI in [7], in [8], in [9] and in assay [10] was above 100 µM each time.

Take `CC1(C)CC(=O)C2=C(C1)NC(=S)C(C#N)C2c1ccccc1` (stereo not given): the TGI in assay [1], in assay [2], in [3], in assay [4], in [5] and in [6] was above 100 µM in each case. For the same compound, the TGI in assay [7], in assay [8], in assay [9] and in [10] was above 100 µM in each case.

With `Cc1oc(N)c(S(=O)(=O)/C(C#N)=C/c2ccccc2[N+](=O)[O-])c1C`, the TGI was 53.9 µM in assay [1]; 40.3 µM in assay [2]; 60.4 µM in [3]; 41 µM in [4]; above 100 µM in assay [5]; 39.2 µM in [6]. For the same compound, the TGI in assay [7] is above 100 µM; in assay [8] it was above 100 µM; in [9], 63.1 µM; in [10], above 100 µM.

On to `COC(=O)C1CCC(=O)NCCCCC(NC(=O)C(N)CC(=O)O)C(=O)N1` (stereo not drawn) (H-Asp-Lys-Glu-OMe; lactam 2-3; configuration not given here), for which the TGI in assay [1], in [2], in assay [3], in assay [4], in assay [5] and in [6] was above 100 µM each time. The TGI in assay [7], in assay [8], in assay [9] and in assay [10] was above 100 µM each time.

Take `C[C@@H]1C[C@@H]2OC(=O)[C@]3(C)[C@H]2[C@@H](OC3(C)O)[C@]2(C)C(=O)C=C[C@@H]12` (stereo not given in full): the TGI in assay [1] is 62.1 µM; in [2] it was 32 µM; in [3], 2.69 µM; in assay [4] it was 23.8 µM; in assay [5], above 100 µM; in assay [6], 41 µM. The TGI in assay [7] was above 100 µM; in [8], above 100 µM; in assay [9], 51.9 µM; in [10] it was above 100 µM.

Take `O=C1CC(c2cccc([N+](=O)[O-])c2)C2(C(=O)NC(=S)NC2=O)C(c2cccc([N+](=O)[O-])c2)C1` (stereo not given): the TGI in assay [1] was 64.3 µM; in assay [2] it was above 100 µM; in assay [3] it was above 100 µM; in assay [4] it was 89.6 µM; in assay [5] it was above 100 µM; in [6] it was above 100 µM. Moreover, the TGI is 43.4 µM in [7], above 100 µM in [8], above 100 µM in [9] and 47.7 µM in assay [10].
